From patent US20260000676A1, “CHROMAN DERIVATIVES AS ESTROGEN RECEPTOR DEGRADERS” (THE REGENTS OF THE UNIVERSITY OF MICHIGAN, priority 2022, published 2026)

Key:
[1] = molecular target: T1, ER (Homo sapiens (Human), UniProt P03372); assay: In-cell western (ICW) ER degradation assay in T47D cells; assay type: cell-based; conditions: 16 hrs; for DC50: ER degradation; for T47D Dmax % / Dmax: maximal ER degradation
[2] = molecular target: CRBN/DDB1 (Homo sapiens (Human), UniProt Q96SW2); assay: HTRF binding assay to CRBN/DDB1; conditions: read-out: CRBN HTRF IC50
Sequence of CRBN/DDB1 (Q96SW2 whole entry): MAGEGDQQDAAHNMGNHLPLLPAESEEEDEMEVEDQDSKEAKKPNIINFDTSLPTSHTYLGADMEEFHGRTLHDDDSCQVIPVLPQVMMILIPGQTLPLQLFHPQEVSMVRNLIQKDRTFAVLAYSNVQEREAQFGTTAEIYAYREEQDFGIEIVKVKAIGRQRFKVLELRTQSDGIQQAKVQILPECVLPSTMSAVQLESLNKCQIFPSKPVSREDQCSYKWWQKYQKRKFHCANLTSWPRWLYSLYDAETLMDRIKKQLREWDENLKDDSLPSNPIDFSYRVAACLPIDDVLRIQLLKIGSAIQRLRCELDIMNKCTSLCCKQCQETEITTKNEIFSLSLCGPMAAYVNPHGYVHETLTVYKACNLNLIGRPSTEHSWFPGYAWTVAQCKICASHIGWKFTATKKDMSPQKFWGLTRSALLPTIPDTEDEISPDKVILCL
Sequence of CRBN/DDB1 (Q16531 whole entry partner): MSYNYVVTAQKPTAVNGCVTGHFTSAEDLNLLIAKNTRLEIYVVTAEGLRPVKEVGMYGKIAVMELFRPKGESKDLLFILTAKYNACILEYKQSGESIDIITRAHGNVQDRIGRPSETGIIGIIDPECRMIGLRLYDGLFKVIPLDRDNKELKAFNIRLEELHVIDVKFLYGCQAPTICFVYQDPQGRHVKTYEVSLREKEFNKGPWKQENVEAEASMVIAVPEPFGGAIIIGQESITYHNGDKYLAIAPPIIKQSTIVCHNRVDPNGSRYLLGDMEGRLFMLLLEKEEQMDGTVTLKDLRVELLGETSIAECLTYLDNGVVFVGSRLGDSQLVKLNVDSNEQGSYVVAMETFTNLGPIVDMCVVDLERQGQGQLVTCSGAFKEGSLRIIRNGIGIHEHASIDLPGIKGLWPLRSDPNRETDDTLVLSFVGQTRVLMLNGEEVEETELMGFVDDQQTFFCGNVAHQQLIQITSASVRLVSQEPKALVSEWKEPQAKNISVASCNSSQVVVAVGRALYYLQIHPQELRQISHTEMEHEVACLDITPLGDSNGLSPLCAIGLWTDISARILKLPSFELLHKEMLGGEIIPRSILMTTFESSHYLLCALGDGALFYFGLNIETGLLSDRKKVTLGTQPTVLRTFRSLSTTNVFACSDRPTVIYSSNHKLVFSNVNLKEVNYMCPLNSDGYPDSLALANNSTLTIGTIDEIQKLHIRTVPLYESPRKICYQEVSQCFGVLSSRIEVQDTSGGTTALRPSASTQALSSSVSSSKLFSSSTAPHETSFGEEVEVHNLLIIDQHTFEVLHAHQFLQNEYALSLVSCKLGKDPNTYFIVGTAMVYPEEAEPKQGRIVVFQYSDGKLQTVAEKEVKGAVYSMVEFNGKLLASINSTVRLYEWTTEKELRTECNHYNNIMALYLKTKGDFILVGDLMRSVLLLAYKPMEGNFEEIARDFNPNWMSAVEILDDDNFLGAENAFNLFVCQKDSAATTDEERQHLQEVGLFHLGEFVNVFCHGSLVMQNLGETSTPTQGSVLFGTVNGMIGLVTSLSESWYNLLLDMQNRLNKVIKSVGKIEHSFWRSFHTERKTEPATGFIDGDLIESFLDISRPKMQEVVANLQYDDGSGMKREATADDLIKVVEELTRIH
Method: The binding potency was determined using HTRF assay technology (Perkin Elmer). Compounds were serially diluted in DMSO and 0.2 μL volume was transferred to white 384-well plate.

[3] = molecular target: T1, ER; assay: In-cell western (ICW) ER degradation assay in MCF-7 cells; assay type: cell-based; conditions: MCF7, 16 hrs; for DC50: ER degradation; for MCF7 Dmax %: maximal ER degradation; for Dmax: MCF7, maximal ER degradation

T1 sequence (P03372 whole entry): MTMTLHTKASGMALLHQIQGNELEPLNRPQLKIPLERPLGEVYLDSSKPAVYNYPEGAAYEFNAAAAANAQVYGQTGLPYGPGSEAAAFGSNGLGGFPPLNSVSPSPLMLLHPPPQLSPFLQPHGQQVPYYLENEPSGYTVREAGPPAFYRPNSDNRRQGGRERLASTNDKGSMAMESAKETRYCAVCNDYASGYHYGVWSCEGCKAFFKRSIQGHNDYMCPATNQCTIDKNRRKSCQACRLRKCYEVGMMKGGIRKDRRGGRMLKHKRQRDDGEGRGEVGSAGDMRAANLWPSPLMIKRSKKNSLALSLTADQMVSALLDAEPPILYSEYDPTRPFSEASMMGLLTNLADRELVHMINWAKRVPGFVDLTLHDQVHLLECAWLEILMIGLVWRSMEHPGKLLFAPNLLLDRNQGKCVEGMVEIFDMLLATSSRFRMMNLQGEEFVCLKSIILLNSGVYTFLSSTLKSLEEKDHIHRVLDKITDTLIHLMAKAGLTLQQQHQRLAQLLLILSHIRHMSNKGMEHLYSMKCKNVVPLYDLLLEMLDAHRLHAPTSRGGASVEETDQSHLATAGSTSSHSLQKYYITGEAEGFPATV

Structure (SMILES) | DC50 [1] | T47D Dmax % [1] | IC50 [2] | DC50 [3] | MCF7 Dmax % [3] | Dmax [1] | Dmax [3]
O=C1CCC(NC(=O)c2ccc(N3CCC(CN4CCN(c5ccc([C@H]6c7ccc(O)cc7OC[C@H]6c6ccccc6)cc5)CC4)CC3)cn2)C(=O)N1 (stereo partly drawn) [Compound A129, N-(2,6-dioxopiperidin-3-yl)-5-(4-((4-(4-((3R,4S)-7-hydroxy-3-phenylchroman-4-yl)phenyl)piperazin-1-yl)methyl)piperidin-1-yl)picolinamide] | 10 to 100 nM | B (“B”: >50% and <75%) | > 5000 nM | 10 to 100 nM | C (“C”: 25%-50%) |  | 
COc1cc(N2CCC3(CC2)CC(CN2CCC4(CC2)COc2c4ccc4c2CN(C2CCC(=O)NC2=O)C4=O)C3)c(F)cc1[C@H]1c2ccc(O)cc2OC[C@H]1c1ccccc1 (stereo partly drawn) [Compound A131, 3-(1′-((7-(2-fluoro-4-((3R,4R)-7-hydroxy-3-phenylchroman-4-yl)-5-methoxyphenyl)-7-azaspiro[3.5]nonan-2-yl)methyl)-6-oxo-6,8-dihydro-2H,7H-spiro[furo[2,3-e]isoindole-3,4′-piperidin]-7-yl)piperidine-2,6-dione] | 1 to 10 nM | B (“B”: >50% and <75%) | < 50 nM | 1 to 10 nM | B (“B”: >50% and <75%) |  | 
O=C1CC[C@@H](N2Cc3c(ccc4c3OC[C@@H]3CN(C[C@H]5COC6(CCN(c7ccc([C@H]8c9ccc(O)cc9OC[C@H]8c8ccccc8)cc7)CC6)C5)CCN43)C2=O)C(=O)N1 [Compound A133, (R)-3-((S)-7-(((S)-8-(4-((3R,4S)-7-hydroxy-3-phenylchroman-4-yl)phenyl)-1-oxa-8-azaspiro[4.5]decan-3-yl)methyl)-1-oxo-1,3,5,5a,6,7,8,9-octahydro-2H-pyrazino[1′,2′:4,5][1,4]oxazino[2,3-e]isoindol-2-yl)piperidine-2,6-dione] | < 1 nM |  | < 50 nM | 1 to 10 nM |  | 25 to 50% | 25 to 50%
COc1cc(N2CCC(CN3CCC4(CC3)COc3c4ccc4c3CN(C3CCC(=O)NC3=O)C4=O)CC2)ccc1[C@H]1c2ccc(O)cc2OC[C@H]1c1ccccc1 (stereo partly drawn) [Compound A135, 3-(1′-((1-(4-((3R,4S)-7-hydroxy-3-phenylchroman-4-yl)-3-methoxyphenyl)piperidin-4-yl)methyl)-6-oxo-6,8-dihydro-2H,7H-spiro[furo[2,3-e]isoindole-3,4′-piperidin]-7-yl)piperidine-2,6-dione] | < 1 nM |  | < 50 nM | < 1 nM |  | 25 to 50% | 25 to 50%
COc1cc(N2CCC(CN3CCC4(CC3)COc3cc5c(cc34)CN(C3CCC(=O)NC3=O)C5=O)CC2)ccc1[C@H]1c2ccc(O)cc2OC[C@H]1c1ccccc1 (stereo partly drawn) [Compound A136, 3-(1′-((1-(4-((3R,4S)-7-hydroxy-3-phenylchroman-4-yl)-3-methoxyphenyl)piperidin-4-yl)methyl)-7-oxo-5,7-dihydro-2H,6H-spiro[furo[2,3-f]isoindole-3,4′-piperidin]-6-yl)piperidine-2,6-dione] | < 1 nM |  | < 50 nM | < 1 nM |  | 50 to 75% | 50 to 75%
O=C1CC[C@H](NC(=O)c2ccc3c(n2)OC[C@H]2CN(C[C@@H]4COC5(CCN(c6ccc([C@@H]7c8ccc(O)cc8OC[C@@H]7c7ccccc7)cc6)CC5)C4)CCN32)C(=O)N1 [Compound A148, (R)-N-((S)-2,6-dioxopiperidin-3-yl)-3-(((R)-8-(4-((3S,4R)-7-hydroxy-3-phenylchroman-4-yl)phenyl)-1-oxa-8-azaspiro[4.5]decan-3-yl)methyl)-1,2,3,4,4a,5-hexahydropyrazino[1,2-d]pyrido[2,3-b][1,4]oxazine-8-carboxamide] | < 1 nM |  | 500 to 5000 nM | < 1 nM |  | 50 to 75% | 50 to 75%
O=C1CC[C@@H](N2Cc3cc4c(cc3C2=O)OC[C@@H]2CN(C[C@@H]3COC5(CCN(c6ccc([C@H]7c8ccc(O)cc8OC[C@H]7c7ccccc7)cc6)CC5)C3)CCN42)C(=O)N1 [Compound A151, (R)-3-((S)-3-(((R)-8-(4-((3R,4S)-7-hydroxy-3-phenylchroman-4-yl)phenyl)-1-oxa-8-azaspiro[4.5]decan-3-yl)methyl)-8-oxo-1,2,3,4,4a,5,8,10-octahydro-9H-pyrazino[1′,2′:4,5][1,4]oxazino[2,3-f]isoindol-9-yl)piperidine-2,6-dione] | < 1 nM |  | 50 to 500 nM | < 1 nM |  | 50 to 75% | 50 to 75%
O=C1CC[C@@H](N2Cc3cc4c(cc3C2=O)OC[C@@H]2CN(C[C@H]3COC5(CCN(c6ccc([C@H]7c8ccc(O)cc8OC[C@H]7c7ccccc7)cc6)CC5)C3)CCN42)C(=O)N1 [Compound A152, (R)-3-((S)-3-(((S)-8-(4-((3R,4S)-7-hydroxy-3-phenylchroman-4-yl)phenyl)-1-oxa-8-azaspiro[4.5]decan-3-yl)methyl)-8-oxo-1,2,3,4,4a,5,8,10-octahydro-9H-pyrazino[1′,2′:4,5][1,4]oxazino[2,3-f]isoindol-9-yl)piperidine-2,6-dione] | 1 to 10 nM | B (“B”: >50% and <75%) | 50 to 500 nM | 10 to 100 nM | B (“B”: >50% and <75%) |  | 
O=C1CC[C@@H](N2Cc3c(ccc4c3OC[C@@H]3CN(C[C@@H]5COC6(CCN(c7ccc([C@H]8c9ccc(O)cc9OC[C@H]8c8ccccc8)cc7F)CC6)C5)CCN43)C2=O)C(=O)N1 [Compound A155, (R)-3-((S)-7-(((R)-8-(2-fluoro-4-((3R,4S)-7-hydroxy-3-phenylchroman-4-yl)phenyl)-1-oxa-8-azaspiro[4.5]decan-3-yl)methyl)-1-oxo-1,3,5,5a,6,7,8,9-octahydro-2H-pyrazino[1′,2′:4,5][1,4]oxazino[2,3-e]isoindol-2-yl)piperidine-2,6-dione] | 1 to 10 nM |  | < 50 nM | > 100 nM |  | 25 to 50% | < 25%
O=C1CCC(Nc2ccc(C34CCN(CC5COC6(CCN(c7ccc([C@H]8c9ccc(O)cc9OC[C@H]8c8ccccc8)cc7F)CC6)C5)CC3C4(F)F)cc2)C(=O)N1 (stereo partly drawn) [Compound A156, 3-((4-(7,7-difluoro-3-(((R)-8-(2-fluoro-4-((3R,4S)-7-hydroxy-3-phenylchroman-4-yl)phenyl)-1-oxa-8-azaspiro[4.5]decan-3-yl)methyl)-3-azabicyclo[4.1.0]heptan-6-yl)phenyl)amino)piperidine-2,6-dione] | < 1 nM |  | 500 to 5000 nM | > 100 nM |  | 25 to 50% | < 25%
O=C1CCC(Nc2ccc(C34CCN(CC5COC6(CCN(c7ccc([C@@H]8c9ccc(O)cc9OC[C@@H]8c8ccccc8)cc7F)CC6)C5)CC3C4(F)F)cc2)C(=O)N1 (stereo partly drawn) [Compound A159, 3-((4-(7,7-difluoro-3-(((R)-8-(2-fluoro-4-((3S,4R)-7-hydroxy-3-phenylchroman-4-yl)phenyl)-1-oxa-8-azaspiro[4.5]decan-3-yl)methyl)-3-azabicyclo[4.1.0]heptan-6-yl)phenyl)amino)piperidine-2,6-dione] | 1 to 10 nM |  | 500 to 5000 nM | 1 to 10 nM |  | 50 to 75% | 25 to 50%
